Assay results taken from patent US12181483B2, “Kit comprising antibody binding acrolein-protein conjugate for diagnosing nephropathy” (National Yang Ming Chiao Tung University, priority 2022, dated 2024).

Key:
[1] = system: mice; assay: Acrolein-treated animal model (oral gavage) compared with vehicle control: glucose handling, renal function, kidney histology; assay type: in vivo
Method: To investigate the role of acrolein in the pathogenesis of diabetic nephropathy (DN), we compared the renal function of HFD/STZ-induced DN mice and mice treated with acrolein (2.5 mg/kg, p.o.) as shown in FIG. 2A.
We further explored the pathological abnormalities in HFD/STZ-induced DN mice and acrolein-treated mice.

[2] = system: acrolein-modified BSA (Acr-BSA) or acrolein-modified OVA (Acr-OVA); assay: ELISA of hybridoma clones / purified Acr-PC antibody against acrolein-modified proteins; assay type: binding
Method: Monoclonal antibody preparation. Female BALB/c mice were immunized three times with the acrolein-treated ovalbumin (Acr-OVA). Spleen cells from the immunized mice were fused with NS0 murine myeloma cells and cultured in a hypoxantineyamethopterinythymidine selection medium. Culture supernatants of the hybridoma were screened using an ELISA assay, pairs of wells in the microtiter plates on which acrolein-treated BSA (Acr-BSA) was absorbed. After being incubated with 100 μl of hybridoma supernatants and washed with Tris-buffered saline (TBS) containing 0.05% Tween 20 (TBST), the wells were incubated with HRP-conjugated goat anti-mouse IgG, followed by a substrate solution containing TMB. Hybridoma cells corresponding to supernatants that were positive on Acr-BSA or Acr-OVA and negative on BSA or OVA were then cloned by limiting dilutions. After the repeated screening, five clones were obtained. […] After antibody purification from hybridoma clone #5, we confirmed the specificity and examined the antibody titer using a similar ELISA assay described above.

[3] = mice kidney, acrolein group vs control group (FIG. 2I)
[4] = mice, acrolein group vs control group (FIG. 2I)
[5] = antibody purified from hybridoma clone #5 (FIG. 3B)

Row | Molecule | collagen fiber content and degree of fibrosis, Sirius red staining [1, 3] | positive immunohistochemical staining for Acr-PC in the glomeruli and renal tubules [1, 3] | insulin intolerance, insulin tolerance tests (ITT) ([1]; mice, acrolein 2.5 mg/kg p.o., 16 weeks, severity not as high as in HFD/STZ mice (FIGS. 2D-E)) | blood glucose (fasting plasma glucose) ([1]; mice, acrolein 2.5 mg/kg p.o., oral gavage for 16 weeks, vs control group (FIG. 2B)) | kidney histology, H&E staining [1, 4] | kidney histology, PAS staining [1, 4] | urine albumin/creatinine ratio (UACR) ([1]; mice, oral gavage of acrolein for 12 weeks (FIG. 2F)) | urine albumin/creatinine ratio (UACR) ([1]; mice, oral gavage of acrolein for 16 weeks, vs control group (FIG. 2F)) | uric acid (UA) ([1]; mice, oral gavage of acrolein for 16 weeks, vs control group (FIG. 2G)) | blood urea nitrogen (BUN) ([1]; mice, oral gavage of acrolein for 16 weeks, vs control group (FIG. 2H)) | antibody titer in ELISA [2, 5] | specificity in ELISA [2, 5] | recognition of Acr-BSA or Acr-OVA in ELISA ([2]; hybridoma supernatant, among five clones (#1 to #5) (FIG. 3A))
1 | C=CC=O [acrolein] | increased evidently | significantly increased | induced insulin intolerance | did not increase blood glucose | disorderly, inflammatory cell infiltration in the interstitium and vacuolar lesion in the epithelial cells | glomerular mesangium expansion and extracellular matrix deposition | increased UACR, although not significantly | significant increase | significant increase | significant increase | – | – | –
2 | clone #5: monoclonal antibody purified from hybridoma clone #5 recognizing acrolein-protein conjugate; heavy chain SEQ ID NO:1, light chain SEQ ID NO:2 (antibody, listed as Mus musculus, V domains shown) VH: QVQLQESGAELARPGASVRLSCKASGNIFPDHSINWVKQRTGQGLEWIGEIFHGSGNTYYNEKFKGKATLTADKSSTTVYLQLTSLTSEDSAVYFCARWVYGSSFFDVWGAGTTVTVSSAKTTPPSVYPLAP VL: DIVLTQTPASLAVSLGQTITIFCRASESVEYYGTNLMQWYQQKPGQPPRVLIYGASNVESGVPARFSGSGSGTDFSLNILPVEEDDIAMYFCQQSRKVPWTFGGGTKLEIKRADAAPTV | – | – | – | – | – | – | – | – | – | – | high | high specificity | most distinctive recognition of Acr-BSA or Acr-OVA
